From the METLIN SMRT retention time set (Domingo-Almenara et al. 2019)

Assay: gradient 5% acetonitrile 3 min, to 50% in 2 min, to 85% in 15 min, held 3 min, 100 µL/min
Settings: column: Zorbax Extend-C18 2.1 x 50 mm; eluents: water / acetonitrile, 0.1% formic acid
How it was run: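 Retention times of pure standards were taken from adduct peaks that were selected by computer and manually inspected. Over 3 months, mixtures of ~100 molecules were run by HPLC–quadrupole time-of-flight mass spectrometry in positive and negative ionization mode. The Zorbax Extend-C18 column (2.1 × 50 mm, 1.8 μm) ran at 100 μL/min in water and acetonitrile, each containing 0.1% formic acid, with 40 μL dead volume and 900 μL dwell volume.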

Row | Structure (SMILES) | RP-LC retention time
1 | O=C(Cc1ccccc1Cl)N1CCN(Cc2noc3ccccc23)CC1 | 739 s
2 | CCN(CC)C(=O)c1cc2c(s1)CCC(C(=O)N1CCC(C)CC1)C2 (stereo not given) | 806 s
3 | Cc1cc(C(=O)Nc2ccc(F)c(F)c2)nc2cc(-c3ccco3)nn12 | 810 s
4 | COc1ccccc1Nc1c(-c2cccc(O)c2)nc2cnccn12 | 681 s
5 | Cc1noc([C@@H]2CN(Cc3ccc(F)cc3Cl)C[C@H]2CO)n1 | 600 s
6 | Cc1cc(C(=O)NCC2Cn3cccc3C(=O)N2C)n(C)n1 (stereo not given) | 600 s
7 | CCN(C(=O)c1cc(OC)cc(OC)c1)c1nc(-c2ccccc2)cs1 | 1260 s
8 | CCn1cnc2ccc(-c3noc(-c4ccc(C)cc4)n3)cc21 | 832 s
9 | COc1ccc(NC(=O)N2CC(N(C3CCOCC3)S(C)(=O)=O)C2)cc1OC | 630 s
10 | NC(=O)c1c(N)c(C(=O)c2cccc([N+](=O)[O-])c2)n2ccccc12 | 649 s
11 | O=C(Cn1nnc2ccccc2c1=O)N1CCN(c2ncccn2)CC1 | 629 s
12 | CCOc1ccc(CN2C(=O)C3(CCOCC3)CC2c2nnnn2C(C)(C)C)cc1OC (stereo not given) | 754 s
13 | CCCN1C(=O)COc2ccc(-c3noc(COc4cccc(C)c4)n3)cc21 | 1170 s
14 | COc1ccc(C(=O)N2CCCC2c2nc(-c3ccc(OC)c(OC)c3)no2)cc1OC (stereo not given) | 817 s
15 | Cc1ccc2c(c1)C1(CCN(CCc3nc(-c4ccccc4)oc3C)CC1)OC(=O)N2 | 747 s
16 | CCN(CC)S(=O)(=O)N1CCC(C(=O)NCCN2CCOCC2)CC1 | 579 s
17 | COCc1nc(CCNS(=O)(=O)c2ccc(OC)cc2)no1 | 731 s
18 | COc1ccc(C2Cn3nnc(-c4nc(-c5ccccc5C)no4)c3CO2)cc1 (stereo not given) | 1200 s
19 | O=C(Nc1nc(-c2cccnc2)cs1)c1csc(-n2cccc2)n1 | 667 s

Row | Structure (SMILES) | RP-LC retention time
20 | CCNS(=O)(=O)c1cc(-c2c(C)noc2C)ccc1C | 807 s
21 | Cc1cc(F)ccc1NC(=O)COc1cc(C(F)(F)F)c2c(C)nn(C)c2n1 | 985 s
22 | N#Cc1ccc(S(=O)(=O)NC2CCc3nn(CC4CC4)c(=O)n3CC2)cc1 (stereo not given) | 616 s
23 | COc1ccc(NC(=O)C2CN(S(C)(=O)=O)CC23CCCCC3)cc1 (stereo not given) | 852 s
24 | O=C(NCCOc1ccc(-c2ccccn2)nn1)c1ccco1 | 555 s
25 | Fc1ccccc1-c1noc(-c2nc(Cc3ccccc3)no2)n1 | 1160 s
26 | CCCc1c(C(=O)OCC)cnc2nc(-c3ccccc3)nn12 | 1120 s
27 | COc1ccc(Nc2c(C(=O)N3CCCC3)cnc3nc(C)ccc23)cc1OC | 906 s
28 | Cc1sc(C)c(S(=O)(=O)N2CCC3(CC2)OCCO3)c1-c1cc(C(F)(F)F)on1 | 1110 s
29 | c1ccc(-c2nc3nccc(-c4ccncc4)n3n2)cc1 | 699 s
30 | CC(C)NC(=O)c1ccc2ncnc(N3CCCCC3)c2c1 | 586 s
31 | COc1ccc(NC(=O)c2noc3c2CCCCC3)cc1 | 989 s
32 | O=C(Nc1ccc(Cl)cc1)Nc1cccc2nsnc12 | 1100 s
33 | O=C(CN1CCN(C(=O)Nc2ccccc2)CC1=O)NC1CCCCCC1 | 721 s
34 | COc1cc(C(=O)N2CCC(CC(=O)N3CCN(c4ccccn4)CC3)CC2)cc(OC)c1OC | 595 s
35 | CCCCN(C)C(=O)C1CCC(=O)N(c2cc(OC)c(OC)c(OC)c2)C1c1ccc(OC)cc1 (stereo not given) | 768 s
36 | COc1ccc(NC(=O)c2cc(C(C)C)n3nccc3n2)cc1 | 1040 s
37 | COc1ccc(Nc2nc(-c3ccc(OC)cc3)c(CCC(=O)O)s2)cc1 | 756 s

Further lines, results first:

Row | RP-LC retention time | Structure (SMILES)
38 | 810 s | Cn1ncc2c3ccccc3n(CCCC(=O)NCc3ccccc3)c2c1=O
39 | 631 s | CC(C)NC(=O)c1c2c(nc3ccc(F)cc13)CCCC2
40 | 647 s | O=C(Cn1c(=O)c2cccn2c2ccc(F)cc21)NCCCN1CCCC1=O
41 | 710 s | O=C(O)c1ccc(N2CCCC2)c(NC(=O)c2cccs2)c1
42 | 560 s | CCN1CCN(c2cc(C)c3cc(NC(=O)c4ccco4)ccc3n2)CC1
43 | 697 s | O=C(Cc1nnc(-c2ccc3ncccc3c2)o1)Nc1ccc(F)cc1
44 | 831 s | COC(=O)c1c(NCc2cccc(Br)c2)c2cc(F)ccc2[nH]c1=O
45 | 584 s | Cc1nc2cccnc2n1CCN1CCN(C(=O)Nc2ccccc2Cl)CC1
46 | 843 s | O=C(NCC1CC1)c1cn(-c2ccc(-c3nc(C4CC4)no3)cn2)cn1
47 | 831 s | CCCC(C)c1nnc(NC(=O)C2CCN(C(=O)c3cccc(F)c3)CC2)s1 (stereo not given)
48 | 858 s | COC(=O)c1c(NC(C)c2ccc(F)cc2)c2cccc(Cl)c2[nH]c1=O (stereo not given)
49 | 704 s | Cc1nn(CC(=O)NCCN2CCOCC2)c(=O)c2c(-n3cccc3)n(-c3ccc(Cl)cc3)nc12
50 | 809 s | Cn1nc(C(=O)N2CCC3(CC2)N=C(c2ccccc2)NO3)c2ccccc21
51 | 614 s | O=C(NCCN1CCCCC1)C1CCN(c2cnn(Cc3ccccc3)c(=O)c2)CC1
52 | 634 s | O=S(=O)(c1cccc2cccnc12)N1CC(c2noc(C3CCCN3CC3CC3)n2)C1 (stereo not given)
53 | 563 s | OC(CN1CCN(c2ccccn2)CC1)c1ccc(Cl)cc1 (stereo not given)
54 | 710 s | COc1ccc(CNC(=O)NCCc2nc3cccnc3n2Cc2ccccc2)cc1
55 | 678 s | O=C(Nc1cccc(-c2nc3ncccc3o2)c1)[C@@H]1OCCN(C2CC2)[C@H]1c1ccccc1
56 | 928 s | CN(C)c1ccc(N2C=C(C(=O)N3CCCC3)S(=O)(=O)c3ccc(Cl)cc32)cc1
57 | 610 s | CCc1ccc(S(=O)(=O)Nc2ccc3nc(N4CCN(CC)CC4)cc(C(=O)O)c3c2)cc1
58 | 860 s | O=C(Nc1ccccc1Br)C1CCCN(C(=O)c2ccccc2F)C1 (stereo not given)
59 | 701 s | Cc1ccn2c(NC(=O)c3c(F)cccc3Cl)c(-c3ccc(F)cc3)nc2c1
60 | 765 s | Cc1ccc(-n2nc(C)c(S(=O)(=O)Nc3ccc(S(N)(=O)=O)cc3)c2C)cc1
61 | 621 s | O=C(NCc1ccc(Cl)cc1)c1cn2c(n1)CCCC2
62 | 1280 s | CCOc1ccc(C(=O)n2nc(C)c(S(=O)(=O)N3CCC(C)CC3)c2C)cc1
63 | 843 s | O=C(NCc1ccc(Cl)cc1)c1ccc(NC(=O)C2CC2)cc1N1CCOCC1
64 | 1080 s | Cc1ccc(Nc2c(-c3cccc(Cl)c3)nc3ccc(Cl)cn23)cc1

Row | RP-LC retention time | Structure (SMILES)
65 | 664 s | Cc1ccc(F)cc1NC(=O)CSc1ccc(N2CCCC(C(=O)NC3CC3)C2)nn1 (stereo not given)
66 | 634 s | CCN1CCN(c2c(S(=O)(=O)c3ccc(Cl)cc3)cnc3cc(OC)c(OC)cc23)CC1
67 | 721 s | CN(C)c1ccc(C(=O)NC2CCN(c3cc(-c4cccs4)[nH]n3)C2)cc1 (stereo not given)
68 | 847 s | Cc1ccc(CN2CCN(C3CCN(S(=O)(=O)c4ccccc4Cl)CC3)C(=O)C2=O)cc1
69 | 597 s | Cc1ccc(NC(=O)C2CCCN(c3cc(=O)n(C)c(=O)n3C)C2)nc1 (stereo not given)
70 | 656 s | CCN1CCc2nc(NC(=O)C3CCN(S(=O)(=O)c4ccc(Cl)s4)CC3)sc2C1
71 | 644 s | Cc1ccccc1NC(=O)Cn1cnc2nc(N3CCCC(C(=O)NC4CC4)C3)sc2c1=O (stereo not given)
72 | 670 s | CCCC(NC(=O)c1ccccn1)C(=O)Nc1nc2ccccc2[nH]1 (stereo not given)
73 | 1110 s | O=C(Cn1nc2c(SC3CCCCC3)nccn2c1=O)N1CCN(c2ccccc2)CC1
74 | 694 s | Cc1nn(-c2ccccc2)c2c1N(CCCC(=O)N1CCOCC1)C(=O)CS2
75 | 1090 s | CC(C)c1cccc(NC(=O)Cn2nc(N3CCCC3)c3ccccc3c2=O)c1
76 | 1100 s | O=C(c1c(F)cccc1F)N1CCc2nc(-c3ccc(Cl)cc3)ncc2C1
77 | 846 s | Cc1cccc(CNC2=NCCNC23CCN(S(=O)(=O)c2c(C)cc(C)cc2C)CC3)c1
78 | 763 s | Cc1ccc(NC(=O)N2CCCN(c3ccc(=O)n(-c4ccccc4)n3)CC2)c(C)c1
79 | 880 s | Cc1ccc(CC(=O)Nc2ccc(-c3nc(Cn4cccn4)c(C)o3)cc2)cc1
80 | 781 s | COc1ccc(CCNC(=O)NC(C)Cc2cccs2)cc1 (stereo not given)
81 | 708 s | Cc1ccc(NC(=O)Cn2nc3n(c2=O)CCCCC3)cc1
82 | 835 s | CCCCNC(=O)CN1C(=O)CC(c2cccs2)=Nc2ccccc21
83 | 870 s | CCOc1ccc(-c2nc(Cn3cnc4nc5c(cc4c3=O)CCCC5)c(C)o2)cc1
84 | 1220 s | CCOc1ccccc1NC(=O)C1CCCN(c2nc3ccccc3nc2OC)C1 (stereo not given)
85 | 547 s | O=C(Cc1ccc(NC(=O)c2ccncc2)cc1)NC1CC1
86 | 899 s | CCc1ccc(-n2nc(N3CCCC(C(=O)NCc4cccc(F)c4)C3)ccc2=O)cc1 (stereo not given)
87 | 705 s | Cc1ccccc1S(=O)(=O)NC1CCN(c2ccc(=O)n(C)n2)C1 (stereo not given)
88 | 792 s | O=C(c1cccnc1)N1CCC2(CC1)Nc1cc(F)ccc1-n1cccc12
89 | 602 s | Cc1nn(-c2ccccc2)c2c1N(CCCC(=O)NCCN(C)C)C(=O)CS2
90 | 790 s | CCOc1cc(=O)n2c(c1C(=O)Nc1ccc(Br)cc1F)CCCC2
